# According to patent US20260184663A1, “INDENE COMPOUNDS, PHARMACEUTICAL COMPOSITIONS THEREOF, AND THEIR THERAPEUTIC APPLICATIONS” (NucMito Pharmaceuticals co. Ltd., priority 2022, published 2026):
# Columns and labels:
# Type in all cases: cell-based
# [1] = tested on: A549 (lung adenocarcinoma); assay: Antiproliferative activity (CCK-8 cell viability), A549; details: Homo sapiens, 72 h, read-out: Antiproliferative activity in cancerous cells, A549 (inhibition of cell growth); for inhibition at 3.3 µM: Compound concentration: 3.3 μM; for inhibition at 10 µM: Compound concentration: 10 μM; for inhibition at 30 µM: Compound concentration: 30 μM
# Protocol: (§1) The antiproliferative activity of a compound was determined in the following cell lines: MDA-MB-231 (breast cancer), HepG2 (liver cancer), SW480 (colon cancer), B16F10 (malignant melanoma), A431 (epidermoid carcinoma), A549 (lung adenocarcinoma), and HeLa (cervical cancer). MDA-MB-231, HepG2, SW480, B16F10, and A431 cells were cultured in Dulbecco's modified Eagle's medium (DMEM) containing 10% fetal bovine serum (FBS). HeLa cells were cultured in MEM/EBSS (MEM) containing 10% FBS. A549 cells were maintained in Kaighn's modification of Ham's F-12 medium containing 10% FBS. A Cell Counting Kit-8 (CCK-8) was used to measure the cell viability of different cells following treatment with the compound.
# (§2) Briefly cells were seeded in a 96-well plate at a density of 2,000-5,000 cells/well. Following attachment, the cells were treated with the compound in media at a compound concentration of 3.3 μM, 10 μM, or 30 μM. After the cells were incubated at 37° C. for 72 h, a CCK-8 solution (10 μL) was added to each well. After incubation at 37° C. for 4 h, the absorbance value of each well was determined using a multi-well plate reader at 450 nm. The wells treated with DMSO were taken as a vehicle control. Data were also obtained similarly for all the replicates and the percentage of cell viability was determined with respect to the DMSO-treated cells. The results are summarized in Tables 2-4, wherein A represents no less than […] of cell growth; B represents no less than 30% but less than 50% inhibition of cell growth; and C represents less than 30% inhibition of cell growth.
# [2] = tested on: A431 (epidermoid carcinoma); assay: Antiproliferative activity (CCK-8 cell viability), A431; details: Homo sapiens, 72 h, read-out: Antiproliferative activity in cancerous cells, A431 (inhibition of cell growth); for inhibition at 3.3 µM: A-431, Compound concentration: 3.3 μM; for inhibition at 10 µM: A-431, Compound concentration: 10 μM; for inhibition at 30 µM: A-431, Compound concentration: 30 μM
# Protocol: as §1, §2
# [3] = tested on: B16F10 (malignant melanoma); assay: Antiproliferative activity (CCK-8 cell viability), B16F10; details: Mus musculus, 72 h, read-out: Antiproliferative activity in cancerous cells, B16F10 (inhibition of cell growth); for inhibition at 3.3 µM: B16-F10, Compound concentration: 3.3 μM; for inhibition at 10 µM: B16-F10, Compound concentration: 10 μM; for inhibition at 30 µM: B16-F10, Compound concentration: 30 μM
# Protocol: as §1, §2
# SW480 (colon cancer) = assay: Antiproliferative activity (CCK-8 cell viability), SW480; details: Homo sapiens, 72 h, read-out: Antiproliferative activity in cancerous cells, SW480 (inhibition of cell growth); for inhibition at 3.3 µM: Compound concentration: 3.3 μM; for inhibition at 10 µM: Compound concentration: 10 μM; for inhibition at 30 µM: Compound concentration: 30 μM
# Protocol: as §1, §2
# [4] = tested on: MDA-MB-231 (breast cancer); assay: Antiproliferative activity (CCK-8 cell viability), MDA-MB-231; details: Homo sapiens, 72 h, read-out: Antiproliferative activity in cancerous cells, MDA-MB-231 (inhibition of cell growth); for inhibition at 3.3 µM: Compound concentration: 3.3 μM; for inhibition at 10 µM: Compound concentration: 10 μM; for inhibition at 30 µM: Compound concentration: 30 μM
# Protocol: as §1, §2
# HeLa (cervical cancer) = assay: Antiproliferative activity (CCK-8 cell viability), HeLa; details: Homo sapiens, 72 h, read-out: Antiproliferative activity in cancerous cells, HELA (inhibition of cell growth); for inhibition at 3.3 µM: Compound concentration: 3.3 μM; for inhibition at 10 µM: Compound concentration: 10 μM; for inhibition at 30 µM: Compound concentration: 30 μM
# Protocol: as §1, §2
# HepG2 (liver cancer) = assay: Antiproliferative activity (CCK-8 cell viability), HepG2; details: Homo sapiens, 72 h, read-out: Antiproliferative activity in cancerous cells, HepG2 (inhibition of cell growth); for inhibition at 3.3 µM: Compound concentration: 3.3 μM; for inhibition at 10 µM: Compound concentration: 10 μM; for inhibition at 30 µM: Compound concentration: 30 μM
# Protocol: as §1, §2
Structure (SMILES),inhibition at 3.3 µM [1] [%],inhibition at 10 µM [1] [%],inhibition at 30 µM [1] [%],inhibition at 3.3 µM [2] [%],inhibition at 10 µM [2] [%],inhibition at 30 µM [2] [%],inhibition at 3.3 µM [3] [%],inhibition at 10 µM [3] [%],inhibition at 30 µM [3] [%],inhibition at 3.3 µM (SW480 (colon cancer)) [%],inhibition at 10 µM (SW480 (colon cancer)) [%],inhibition at 30 µM (SW480 (colon cancer)) [%],inhibition at 3.3 µM [4] [%],inhibition at 10 µM [4] [%],inhibition at 30 µM [4] [%],inhibition at 3.3 µM (HeLa (cervical cancer)) [%],inhibition at 10 µM (HeLa (cervical cancer)) [%],inhibition at 30 µM (HeLa (cervical cancer)) [%],inhibition at 3.3 µM (HepG2 (liver cancer)) [%],inhibition at 10 µM (HepG2 (liver cancer)) [%],other results
"CC1=C(CC(=O)O)c2cc(F)ccc2/C1=C\c1ccc(Cc2cc3ccccc3s2)cc1 [C312, (Z)-2-(1-(4-(Benzo[b]thiophen-2-ylmethyl)benzylidene)-5-fluoro-2-methyl-1H-inden-3-yl)acetic acid]",< 30,≥ 50,≥ 50,≥ 50,≥ 50,≥ 50,≥ 50,≥ 50,≥ 50,≥ 50,≥ 50,≥ 50,30 to 50,≥ 50,≥ 50,≥ 50,≥ 50,≥ 50,≥ 50,≥ 50,inhibition at 30 µM (HepG2 (liver cancer)): ≥ 50%
"COc1ccc(CCCc2ccc(/C=C3/C(C)=C(CC(=O)O)c4cc(Br)ccc43)cc2)cc1 [B128, (Z)-2-(5-Bromo-1-(4-(3-(4-methoxyphenyl)propyl)benzylidene)-2-methyl-1H-inden-3-yl)acetic acid]",≥ 50,≥ 50,–,≥ 50,≥ 50,–,≥ 50,≥ 50,–,≥ 50,≥ 50,–,≥ 50,≥ 50,–,≥ 50,≥ 50,–,≥ 50,≥ 50,–
"CC1=C(CC(=O)O)c2cc(F)ccc2/C1=C\c1ccc(CCOc2ccc(Cl)cc2)cc1 [B34, (Z)-2-(1-(4-(2-(4-Chlorophenoxy)ethyl)benzylidene)-5-fluoro-2-methyl-1H-inden-3-yl)acetic acid]",30 to 50,≥ 50,–,≥ 50,≥ 50,–,30 to 50,≥ 50,–,< 30,≥ 50,–,< 30,< 30,–,< 30,≥ 50,–,< 30,≥ 50,–
"CC1=C(CC(=O)O)c2cc(F)ccc2/C1=C\c1ccc(Oc2ccc(Cl)c(F)c2)cc1 [C56, (Z)-2-(1-(4-(4-Chloro-3-fluorophenoxy)benzylidene)-5-fluoro-2-methyl-1H-inden-3-yl)acetic acid]",< 30,< 30,–,≥ 50,≥ 50,–,≥ 50,≥ 50,–,< 30,≥ 50,–,≥ 50,≥ 50,–,≥ 50,≥ 50,–,< 30,< 30,–
"COc1ccc(CCCc2ccc(/C=C3/C(C)=C(CC(=O)O)c4cc(Cl)ccc43)cc2)cc1 [B127, (Z)-2-(5-Chloro-1-(4-(3-(4-methoxyphenyl)propyl)benzylidene)-2-methyl-1H-inden-3-yl)acetic acid]",≥ 50,≥ 50,–,≥ 50,≥ 50,–,≥ 50,≥ 50,–,< 30,≥ 50,–,≥ 50,≥ 50,–,≥ 50,≥ 50,–,≥ 50,≥ 50,–
"CC1=C(CC(=O)O)c2cc(Br)ccc2/C1=C/c1ccc(Oc2ccc(Cl)cc2)cc1 [E27, (E)-2-(5-Bromo-1-(4-(4-chlorophenoxy)benzylidene)-2-methyl-1H-inden-3-yl)acetic acid]",< 30,≥ 50,≥ 50,≥ 50,≥ 50,≥ 50,≥ 50,≥ 50,≥ 50,< 30,30 to 50,≥ 50,≥ 50,≥ 50,≥ 50,≥ 50,≥ 50,≥ 50,< 30,≥ 50,inhibition at 30 µM (HepG2 (liver cancer)): ≥ 50%
"CC1=C(CC(=O)O)c2cc(F)ccc2/C1=C/c1ccc(CO)cc1 [E40, (E)-2-(5-Fluoro-1-(4-(hydroxymethyl)benzylidene)-2-methyl-1H-inden-3-yl)acetic acid]",< 30,≥ 50,≥ 50,< 30,≥ 50,≥ 50,< 30,< 30,30 to 50,< 30,≥ 50,≥ 50,< 30,≥ 50,≥ 50,< 30,< 30,≥ 50,< 30,< 30,inhibition at 30 µM (HepG2 (liver cancer)): < 30%
"CC1=C(CC(=O)O)c2cc(C)ccc2/C1=C\c1ccc(COCc2ccc(Cl)cc2)cc1 [B149, (Z)-2-(1-(4-(((4-Chlorobenzyl)oxy)methyl)benzylidene)-2,5-dimethyl-1H-inden-3-yl)acetic acid]",30 to 50,≥ 50,–,≥ 50,≥ 50,–,< 30,< 30,–,< 30,30 to 50,–,< 30,30 to 50,–,< 30,≥ 50,–,< 30,≥ 50,–
